Measured values taken from article PMC6149898, “GPCR Modulation of Thieno[2,3-b]pyridine Anti-Proliferative Agents” (Molecules : A Journal of Synthetic Chemistry and Natural …, 2017).

Key:
OPRL1 = OPRL1 (Homo sapiens, UniProt P41146); assay: gpcrMAX PathHunter beta-arrestin
AVPR1B = AVPR1B (Homo sapiens, UniProt P47901); assay: gpcrMAX PathHunter beta-arrestin
CNS:SF-539 = system: CNS:SF-539; parameters: method as in earlier work; settings: NCI-60 panel; ref [4],[5],[6],[7]; cited from earlier work
GPR120 = GPR120 (Homo sapiens, UniProt Q5NUL3); assay: gpcrMAX PathHunter beta-arrestin
CNS:U251 = system: CNS:U251; parameters: method as in earlier work; settings: NCI-60 panel; ref [4],[5],[6],[7]; cited from earlier work
CHRM5 = CHRM5 (Homo sapiens, UniProt P08912); assay: gpcrMAX PathHunter beta-arrestin
EDNRB = EDNRB (Homo sapiens, UniProt P24530); assay: gpcrMAX PathHunter beta-arrestin
MRGPRX1 = MRGPRX1 (Homo sapiens, UniProt Q96LB2); assay: gpcrMAX PathHunter beta-arrestin
VIPR1 = VIPR1 (Homo sapiens, UniProt P32241); assay: gpcrMAX PathHunter beta-arrestin
AGTR1 = AGTR1 (Homo sapiens, UniProt P30556); assay: gpcrMAX PathHunter beta-arrestin
RXFP3 = RXFP3 (Homo sapiens, UniProt Q9NSD7); assay: gpcrMAX PathHunter beta-arrestin
F2RL3 = F2RL3 (Homo sapiens, UniProt Q96RI0); assay: gpcrMAX PathHunter beta-arrestin
Chain of F2RL3 (Q96RI0 18-385): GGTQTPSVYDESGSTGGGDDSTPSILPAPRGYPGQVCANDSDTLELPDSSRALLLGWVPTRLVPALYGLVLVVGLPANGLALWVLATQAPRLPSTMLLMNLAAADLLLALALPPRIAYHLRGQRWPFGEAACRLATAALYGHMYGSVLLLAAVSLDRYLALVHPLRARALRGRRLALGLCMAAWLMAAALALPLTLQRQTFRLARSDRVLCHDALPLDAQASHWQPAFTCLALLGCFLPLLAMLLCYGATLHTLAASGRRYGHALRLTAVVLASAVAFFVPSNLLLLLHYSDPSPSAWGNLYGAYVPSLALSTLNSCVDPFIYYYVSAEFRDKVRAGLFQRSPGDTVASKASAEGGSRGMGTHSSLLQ
CNS:SNB-75 = system: CNS:SNB-75; parameters: method as in earlier work; settings: NCI-60 panel; ref [4],[5],[6],[7]; cited from earlier work
MC1R = MC1R (Homo sapiens, UniProt Q01726); assay: gpcrMAX PathHunter beta-arrestin
Chain of MC1R (Q01726 whole entry): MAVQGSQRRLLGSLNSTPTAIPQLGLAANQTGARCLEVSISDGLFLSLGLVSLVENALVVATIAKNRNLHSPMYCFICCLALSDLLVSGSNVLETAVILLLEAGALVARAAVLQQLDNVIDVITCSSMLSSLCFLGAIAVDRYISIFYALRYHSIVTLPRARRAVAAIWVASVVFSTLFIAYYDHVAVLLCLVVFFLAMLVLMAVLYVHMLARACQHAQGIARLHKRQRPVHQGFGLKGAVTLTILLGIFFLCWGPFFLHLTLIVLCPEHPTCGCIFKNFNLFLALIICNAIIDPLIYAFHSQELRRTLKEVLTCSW

GCGR = GCGR (Homo sapiens, UniProt P47871); assay: gpcrMAX PathHunter beta-arrestin
ADRB2 = ADRB2 (Homo sapiens, UniProt P07550); assay: gpcrMAX PathHunter beta-arrestin
PTGFR = PTGFR (Homo sapiens, UniProt P43088); assay: gpcrMAX PathHunter beta-arrestin
CCR2 = CCR2 (Homo sapiens, UniProt P41597); assay: gpcrMAX PathHunter beta-arrestin
MC3R = MC3R (Homo sapiens, UniProt P41968); assay: gpcrMAX PathHunter beta-arrestin
CXCR7 = CXCR7 (Homo sapiens, UniProt P25106); assay: gpcrMAX PathHunter beta-arrestin
Chain of CXCR7 (P25106 whole entry): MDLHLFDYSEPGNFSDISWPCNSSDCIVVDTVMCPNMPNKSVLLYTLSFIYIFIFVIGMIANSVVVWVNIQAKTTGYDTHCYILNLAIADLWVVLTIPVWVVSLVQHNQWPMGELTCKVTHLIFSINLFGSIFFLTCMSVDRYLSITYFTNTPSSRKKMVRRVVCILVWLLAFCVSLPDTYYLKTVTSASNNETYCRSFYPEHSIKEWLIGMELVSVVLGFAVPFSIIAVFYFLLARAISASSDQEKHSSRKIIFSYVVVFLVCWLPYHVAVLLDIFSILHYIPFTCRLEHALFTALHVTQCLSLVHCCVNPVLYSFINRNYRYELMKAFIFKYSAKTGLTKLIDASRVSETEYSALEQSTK
BR:HS 578T = system: BR:HS 578T; parameters: method as in earlier work; settings: NCI-60 panel; ref [4],[5],[6],[7]; cited from earlier work
CHRM2 = CHRM2 (Homo sapiens, UniProt P08172); assay: gpcrMAX PathHunter beta-arrestin
PTGER3 = PTGER3 (Homo sapiens, UniProt P43115); assay: gpcrMAX PathHunter beta-arrestin
OXTR = OXTR (Homo sapiens, UniProt P30559); assay: gpcrMAX PathHunter beta-arrestin
Chain of OXTR (P30559 whole entry): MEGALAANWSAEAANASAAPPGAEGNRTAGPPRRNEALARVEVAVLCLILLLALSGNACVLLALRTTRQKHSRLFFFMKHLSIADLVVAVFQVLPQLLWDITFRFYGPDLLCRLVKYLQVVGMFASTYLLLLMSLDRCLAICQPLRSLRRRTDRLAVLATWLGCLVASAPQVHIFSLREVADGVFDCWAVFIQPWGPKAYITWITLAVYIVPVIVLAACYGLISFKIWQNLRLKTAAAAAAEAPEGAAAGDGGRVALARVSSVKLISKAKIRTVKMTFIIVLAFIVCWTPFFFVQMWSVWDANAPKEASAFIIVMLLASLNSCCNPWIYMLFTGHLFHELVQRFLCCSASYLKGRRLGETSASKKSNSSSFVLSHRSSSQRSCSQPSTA

CX3CR1 = CX3CR1 (Homo sapiens, UniProt P49238); assay: gpcrMAX PathHunter beta-arrestin
PR:PC-3 = system: PR:PC-3; parameters: method as in earlier work; settings: NCI-60 panel; ref [4],[5],[6],[7]; cited from earlier work
BDKRB2 = BDKRB2 (Homo sapiens, UniProt P30411); assay: gpcrMAX PathHunter beta-arrestin
Chain of BDKRB2 (P30411 whole entry): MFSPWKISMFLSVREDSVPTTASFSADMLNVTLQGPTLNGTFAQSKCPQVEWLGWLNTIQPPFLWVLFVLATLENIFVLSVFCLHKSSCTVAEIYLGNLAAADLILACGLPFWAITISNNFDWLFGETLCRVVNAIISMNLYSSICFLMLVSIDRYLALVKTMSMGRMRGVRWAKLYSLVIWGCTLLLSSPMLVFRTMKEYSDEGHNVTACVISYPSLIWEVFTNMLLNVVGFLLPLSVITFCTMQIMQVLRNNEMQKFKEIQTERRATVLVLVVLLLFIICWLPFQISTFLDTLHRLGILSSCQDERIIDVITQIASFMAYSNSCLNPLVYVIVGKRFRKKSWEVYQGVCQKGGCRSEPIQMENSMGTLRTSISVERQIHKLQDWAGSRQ

GPR103 = GPR103 (Homo sapiens, UniProt Q96P65); assay: gpcrMAX PathHunter beta-arrestin
CO:HCT-116 = system: CO:HCT-116; parameters: method as in earlier work; settings: NCI-60 panel; ref [4],[5],[6],[7]; cited from earlier work
CALCR = CALCR (Homo sapiens, UniProt P30988); assay: gpcrMAX PathHunter beta-arrestin
Chain of CALCR (P30988 25-474): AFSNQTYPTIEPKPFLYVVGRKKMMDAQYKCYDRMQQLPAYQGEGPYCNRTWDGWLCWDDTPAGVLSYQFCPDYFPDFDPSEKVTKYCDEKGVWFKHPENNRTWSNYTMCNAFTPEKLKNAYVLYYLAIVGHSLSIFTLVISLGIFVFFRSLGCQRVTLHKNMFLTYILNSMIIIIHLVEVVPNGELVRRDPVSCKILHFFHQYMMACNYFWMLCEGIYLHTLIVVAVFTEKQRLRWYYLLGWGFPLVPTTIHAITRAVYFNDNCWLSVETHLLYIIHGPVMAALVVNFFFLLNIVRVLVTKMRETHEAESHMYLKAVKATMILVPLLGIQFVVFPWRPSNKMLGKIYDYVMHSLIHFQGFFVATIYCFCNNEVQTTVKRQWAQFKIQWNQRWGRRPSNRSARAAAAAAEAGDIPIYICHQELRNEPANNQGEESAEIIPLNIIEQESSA
LC:NCI-H522 = system: LC:NCI-H522; parameters: method as in earlier work; settings: NCI-60 panel; ref [4],[5],[6],[7]; cited from earlier work
CCR9 = CCR9 (Homo sapiens, UniProt P51686); assay: gpcrMAX PathHunter beta-arrestin
Chain of CCR9 (P51686 whole entry): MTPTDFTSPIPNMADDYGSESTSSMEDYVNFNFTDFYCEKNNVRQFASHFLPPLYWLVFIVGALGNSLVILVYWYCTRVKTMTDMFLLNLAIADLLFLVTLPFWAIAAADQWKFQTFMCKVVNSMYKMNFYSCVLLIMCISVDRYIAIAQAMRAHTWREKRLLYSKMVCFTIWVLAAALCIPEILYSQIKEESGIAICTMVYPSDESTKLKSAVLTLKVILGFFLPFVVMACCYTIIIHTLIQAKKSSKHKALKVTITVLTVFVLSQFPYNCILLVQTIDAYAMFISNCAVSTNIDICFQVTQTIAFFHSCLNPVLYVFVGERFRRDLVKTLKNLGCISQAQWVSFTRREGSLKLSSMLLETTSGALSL
CO:HCT-15 = system: CO:HCT-15; parameters: method as in earlier work; settings: NCI-60 panel; ref [4],[5],[6],[7]; cited from earlier work
P2RY11 = P2RY11 (Homo sapiens, UniProt Q96G91); assay: gpcrMAX PathHunter beta-arrestin
Chain of P2RY11 (Q96G91 whole entry, one chain of several): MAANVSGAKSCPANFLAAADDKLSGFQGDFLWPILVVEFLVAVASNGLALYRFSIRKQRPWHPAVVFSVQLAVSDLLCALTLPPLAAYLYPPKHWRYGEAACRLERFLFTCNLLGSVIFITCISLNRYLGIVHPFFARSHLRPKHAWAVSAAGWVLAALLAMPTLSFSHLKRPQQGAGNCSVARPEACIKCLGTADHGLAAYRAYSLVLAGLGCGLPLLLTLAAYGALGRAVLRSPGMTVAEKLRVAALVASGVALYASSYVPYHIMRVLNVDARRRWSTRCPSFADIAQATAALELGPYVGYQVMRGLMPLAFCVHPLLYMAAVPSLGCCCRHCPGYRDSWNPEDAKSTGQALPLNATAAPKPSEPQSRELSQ
CNS:SF-295 = system: CNS:SF-295; parameters: method as in earlier work; settings: NCI-60 panel; ref [4],[5],[6],[7]; cited from earlier work
P2RY6 = P2RY6 (Homo sapiens, UniProt Q15077); assay: gpcrMAX PathHunter beta-arrestin
Chain of P2RY6 (Q15077 whole entry): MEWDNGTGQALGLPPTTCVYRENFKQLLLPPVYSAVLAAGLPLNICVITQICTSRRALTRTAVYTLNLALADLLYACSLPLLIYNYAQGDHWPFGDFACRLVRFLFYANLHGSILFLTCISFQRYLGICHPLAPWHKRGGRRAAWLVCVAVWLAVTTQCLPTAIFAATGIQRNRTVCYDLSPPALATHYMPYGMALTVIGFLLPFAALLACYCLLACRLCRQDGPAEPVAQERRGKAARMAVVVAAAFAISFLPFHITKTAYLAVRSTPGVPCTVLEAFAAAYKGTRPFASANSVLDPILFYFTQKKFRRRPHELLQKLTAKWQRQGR

NPBWR2 = NPBWR2 (Homo sapiens, UniProt P48146); assay: gpcrMAX PathHunter beta-arrestin
Chain of NPBWR2 (P48146 whole entry): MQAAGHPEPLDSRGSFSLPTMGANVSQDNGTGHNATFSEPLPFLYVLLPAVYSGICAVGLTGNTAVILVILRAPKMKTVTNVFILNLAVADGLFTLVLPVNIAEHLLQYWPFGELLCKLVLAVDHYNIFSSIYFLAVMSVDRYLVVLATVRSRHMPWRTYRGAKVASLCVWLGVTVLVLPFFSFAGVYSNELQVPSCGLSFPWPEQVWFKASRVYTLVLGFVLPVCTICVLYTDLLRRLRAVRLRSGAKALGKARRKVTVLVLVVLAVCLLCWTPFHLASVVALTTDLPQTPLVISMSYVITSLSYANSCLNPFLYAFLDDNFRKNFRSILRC

CRHR2 = CRHR2 (Homo sapiens, UniProt Q13324); assay: gpcrMAX PathHunter beta-arrestin
Chain of CRHR2 (Q13324 whole entry): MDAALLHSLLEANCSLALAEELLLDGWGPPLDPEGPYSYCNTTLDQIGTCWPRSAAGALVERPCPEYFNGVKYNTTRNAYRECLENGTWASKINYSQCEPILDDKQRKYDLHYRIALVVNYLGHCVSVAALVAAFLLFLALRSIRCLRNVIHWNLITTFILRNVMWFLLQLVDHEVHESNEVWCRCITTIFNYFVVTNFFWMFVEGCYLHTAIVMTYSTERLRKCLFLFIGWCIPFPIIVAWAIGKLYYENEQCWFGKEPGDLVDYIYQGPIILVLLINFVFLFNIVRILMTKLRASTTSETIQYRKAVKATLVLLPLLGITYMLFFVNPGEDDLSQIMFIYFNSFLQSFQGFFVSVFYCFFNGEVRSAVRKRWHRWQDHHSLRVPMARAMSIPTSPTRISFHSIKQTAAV
RE:SN12C = system: RE:SN12C; parameters: method as in earlier work; settings: NCI-60 panel; ref [4],[5],[6],[7]; cited from earlier work
OV:NCI/ADR-RES = system: OV:NCI/ADR-RES; parameters: method as in earlier work; settings: NCI-60 panel; ref [4],[5],[6],[7]; cited from earlier work
NPY1R = NPY1R (Homo sapiens, UniProt P25929); assay: gpcrMAX PathHunter beta-arrestin
Chain of NPY1R (P25929 whole entry): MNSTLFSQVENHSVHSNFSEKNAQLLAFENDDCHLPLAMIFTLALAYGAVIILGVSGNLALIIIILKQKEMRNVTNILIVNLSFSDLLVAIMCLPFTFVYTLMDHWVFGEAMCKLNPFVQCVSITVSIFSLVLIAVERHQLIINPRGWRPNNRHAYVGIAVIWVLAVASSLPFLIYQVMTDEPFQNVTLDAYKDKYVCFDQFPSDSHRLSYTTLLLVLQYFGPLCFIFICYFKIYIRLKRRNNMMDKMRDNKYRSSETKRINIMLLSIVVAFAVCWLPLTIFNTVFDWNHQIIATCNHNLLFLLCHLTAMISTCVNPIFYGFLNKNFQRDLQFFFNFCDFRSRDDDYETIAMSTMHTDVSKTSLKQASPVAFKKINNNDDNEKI

Chain of OPRL1 (P41146 whole entry): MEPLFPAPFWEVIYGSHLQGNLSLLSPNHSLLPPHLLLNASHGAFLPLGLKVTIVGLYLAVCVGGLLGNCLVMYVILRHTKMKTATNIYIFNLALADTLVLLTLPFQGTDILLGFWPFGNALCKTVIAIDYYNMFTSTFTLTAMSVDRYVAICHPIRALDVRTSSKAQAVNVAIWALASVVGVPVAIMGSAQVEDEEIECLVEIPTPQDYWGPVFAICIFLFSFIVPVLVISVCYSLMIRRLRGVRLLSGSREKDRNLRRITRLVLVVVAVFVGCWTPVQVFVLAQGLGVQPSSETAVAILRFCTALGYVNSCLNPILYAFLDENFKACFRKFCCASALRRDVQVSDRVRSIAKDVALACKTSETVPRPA

Cc1c(Cl)cccc1NC(=O)c1sc2nc3c(cc2c1N)C(=O)CCC3 [Compound 1]
inhibition at 10 µM (OPRL1): -7%
inhibition at 10 µM (AVPR1B): 3%
GI50 (CNS:SF-539): 38.2 nM
inhibition at 10 µM (GPR120): 4%
GI50 (CNS:U251): 96.2 nM
inhibition at 10 µM (CHRM5): 8%
inhibition at 10 µM (EDNRB): 0%
inhibition at 10 µM (MRGPRX1): 6%
inhibition at 10 µM (VIPR1): 7%
inhibition at 10 µM (AGTR1): 7%
inhibition at 10 µM (RXFP3): -27%
inhibition at 10 µM (F2RL3): 9%
GI50 (CNS:SNB-75): 40.3 nM
inhibition at 10 µM (MC1R): -16%
inhibition at 10 µM (GCGR): 12%
inhibition at 10 µM (ADRB2): -46%
inhibition at 10 µM (PTGFR): -13%
inhibition at 10 µM (CCR2): -8%
inhibition at 10 µM (MC3R): 2%
inhibition at 10 µM (CXCR7): -15%
GI50 (BR:HS 578T): 48.2 nM
inhibition at 10 µM (CHRM2): -14%
inhibition at 10 µM (PTGER3): 11%
inhibition at 10 µM (OXTR): 7%
inhibition at 10 µM (CX3CR1): 11%
GI50 (PR:PC-3): 53.5 nM
inhibition at 10 µM (BDKRB2): 1%
inhibition at 10 µM (GPR103): -5%
GI50 (CO:HCT-116): 66.8 nM
inhibition at 10 µM (CALCR): -18%
GI50 (LC:NCI-H522): 22.9 nM
inhibition at 10 µM (CCR9): 17%
GI50 (CO:HCT-15): 70.5 nM
inhibition at 10 µM (P2RY11): -6%
GI50 (CNS:SF-295): 36.5 nM
inhibition at 10 µM (P2RY6): -17%
inhibition at 10 µM (NPBWR2): -5%
inhibition at 10 µM (CRHR2): 8%
GI50 (RE:SN12C): 142 nM
GI50 (OV:NCI/ADR-RES): 46.3 nM
inhibition at 10 µM (NPY1R): 11%
